{
  "source": "patent US11180518B2",
  "about": "“Phenyl-heterocycle-phenyl derivatives for use in the treatment or prevention of melanoma” (MAX-PLANCK-GESELLSCHAFT ZUR FÖRDERUNG DER WISSENSCHAFTEN …, priority 2017, dated 2021)",
  "key": {"SK-MEL-5 melanoma cells": {"test_system": "SK-MEL-5 melanoma cells", "experiment": "Cell morphology (phase-contrast)", "type": "cell-based, human", "settings": "increasing doses, serum-free medium; time- and dose-dependent", "excerpt": "(§1) To assess the possible impact of anle138b as well as anle138c on the different melanoma cell lines, WM983-A, WM983-B and SK-MEL-5, we treated them with increasing doses of either compound, dissolved in dimethyl sulfoxide (DMSO), and added to serum-free culture medium. […] We also observed that treatment with anle138b caused a more rapid morphological change than anle138c. To determine whether the effect of the two anle compounds was related to the amount of α-synuclein produced by the cells, we compared the proliferation of the (VGP) WM983-A high-level and the (RGP/VGP) WM1158 low-level α-synuclein-producing melanoma cells over a period of 96 hr, with replenishment of each anle compound at 48 hr (FIGS. 8A and B).\n(§2) 10 or 30 mM stock solutions of anle138b or anle138c were made in DMSO. Since anle138b as well as anle138c bind strongly to FBS, melanoma cells, plated for 24 hr in tissue-culture medium containing 10% FBS, were rinsed three times with serum-free medium prior to addition of anle138b, anle138c, or an equivalent volume of DMSO only in serum-free medium. Forty-eight hours later, the cell culture medium was removed, followed by addition of an equivalent dose of anle138b or anle138c, or DMSO only in serum-free culture medium. […] Proliferation of melanoma cells that had received DMSO only, or were treated with anle138b was determined by counting the cells with a hemocytometer.\n(§3) Cell morphology. Phase-contrast or DIC images of the melanoma cells that had been treated for various times with anle138b or anle138c, or had received DMSO only were captured with a 10×NA 0.6 objective on a Zeiss Axiovert 100 microscope with a Hamamatsu Orca charge-coupled device (CCD) camera. At least four images, at random areas per culture dish, were recorded for each time point."}, "WM1158 melanoma cells": {"test_system": "WM1158 melanoma cells", "experiment": "Cell morphology (phase-contrast)", "type": "cell-based, human", "settings": "10 μM, up to 96 hr, replenishment at 48 hr", "excerpt": "as §1, §2, §3"}, "WM983-B melanoma cells [1]": {"test_system": "WM983-B melanoma cells", "experiment": "Cell morphology (phase-contrast)", "type": "cell-based, human", "settings": "increasing doses, serum-free medium; time- and dose-dependent", "excerpt": "as §1, §2, §3"}, "WM983-B melanoma cells [2]": {"test_system": "WM983-B melanoma cells", "experiment": "Autophagy: LC3 immunofluorescence", "type": "cell-based, human", "method": "We observed a clear effect of the anle compounds on the autophagy pathway of the melanoma cells. […] Following addition of anle138c, the effect was seen later with levels of 8% at 24 hr and 78% after 96 hr.\nAutophagy. WM983-B and SK-MEL-5 cells that for 24 or 48 hr were treated with anle138 or had received DMSO only were fixed for 20 min with 3.7% PFA, permeabilized, blocked, and probed with an anti-LC3B [clone 2G6] antibody (nanoTools Antikörpertechnik GmbH & Co. KG, Teningen, Germany), followed by a donkey anti-mouse Alexa-488 secondary antibody and Draq5 DNA counterstain. Confocal image stacks were obtained with a 63×NA 1.2 objective on a Zeiss LSM 510 Meta confocal microscope."}, "WM983-B melanoma cells [3]": {"test_system": "WM983-B melanoma cells", "experiment": "Immunoblot analysis of p62/SQSTM1 expression", "type": "cell-based, human", "settings": "7.5 μM", "method": "For the analysis of p62/SQSTM1 protein expression, WM983-B melanoma whole-cell lysates were separated on 12% SDS-PAGE, transferred onto nitrocellulose membrane, blocked with 3% bovine serum albumin (BSA), probed with an anti-p62/SQSTM1 antibody (Cell Signaling Technology, Inc. Danvers, Mass., USA), followed by incubation with a corresponding HPR-conjugated secondary antibody and chemiluminescent substrate (EMD Millipore, Billerica, Mass., USA). Protein loading was determined by secondary probing with an anti-GAPDH antibody (Thermo Fisher Scientific Inc.)."}, "[4]": {"test_system": "WM983-B human melanoma xenografts", "experiment": "Melanoma xenograft study: H&E and LC3 staining of tumor sections", "type": "in vivo, nude mice", "settings": "food pellets with compound for seven days; vs control tumor", "excerpt": "To determine whether the DPP compound, anle138b, when administered systemically to human MGP melanoma cells grown as subcutaneous tumors in nude mice, would reach the tumors, we performed the following study. A nude mouse, bearing high-level α-synuclein-expressing (MGP) WM983-B human melanoma xenografts on its lower right and on its lower left dorsal side, received, for seven days, food pellets mixed with anle138b. A second nude mouse, also bearing WM983-B tumors on its lower right as well as on its lower left dorsal side, received, for seven days, the same type of food pellets not containing anle138b. After the mice were sacrificed, we performed the following analyses on the post-mortem resected and thereafter, cryopreserved tumors.\n4-week-old, female nude mice (CAnN.Cg-Foxn1nu/Crl) (Charles River Laboratories, Research Models and Services, Germany GmbH, Sulzfeld, Germany) were injected subcutaneously on their lower right as well as lower left dorsal side with WM983-B (MGP) human melanoma cells (1×10^7 cells per side). When the tumors had reached a size of 2.3 to 3.0 mm in any direction, the normal food pellet diet of one of the animals was replaced with food pellets mixed with anle138b [2 g of anle138b/kg of food pellets] […]"}, "[5]": {"test_system": "WM983-A, WM983-B, and SK-MEL-5 melanoma cell lines", "experiment": "Apoptosis markers in treated melanoma cells", "type": "cell-based, human", "excerpt": "Although the morphological changes in the WM983-A, WM983-B, and SK-MEL-5 melanoma cell lines following addition of anle138b occurred quite rapidly, they were not indicative of the cells undergoing apoptosis. […] Differential interference contrast (DIC) images of the morphology of the anle138b-treated WM983-B, SK-MEL-5, and WM1158 melanoma cells from the same panels are shown in FIG. 9."}, "Binding to FBS": {"experiment": "Binding to FBS", "type": "in vitro ADME"}, "WM983-B melanoma cells [6]": {"test_system": "WM983-B melanoma cells", "experiment": "LDH cytotoxicity analysis", "settings": "2, 5, 10 or 15 μM for 96 hr, replenishment at 48 hr"}},
  "data": [
    {"smiles": "Brc1cccc(-c2cc(-c3ccc4c(c3)OCO4)n[nH]2)c1", "note": "[anle138b, 5-(3-Bromophenyl)-3-(3,4-methylenedioxyphenyl)-1H-pyrazole]", "values": [
      {"measurement": "morphological changes", "setting": "SK-MEL-5 melanoma cells", "value": "major morphological changes"},
      {"measurement": "morphology", "setting": "WM1158 melanoma cells", "value": "did not show a significantly altered morphology"},
      {"measurement": "morphological changes", "setting": "WM983-B melanoma cells [1]", "value": "major morphological changes"},
      {"measurement": "cells with punctuate upregulation of LC3", "setting": "WM983-B melanoma cells [2]; 24 hr, cells still attached", "value": "about 60%"},
      {"measurement": "cells with punctuate upregulation of LC3", "setting": "WM983-B melanoma cells [2]; 48 hr, cells remaining on the dish", "value": 95, "unit": "%"},
      {"measurement": "p62/SQSTM1 expression", "setting": "WM983-B melanoma cells [3]; 48 and 72 hr, replenishment at 48 hr, vs DMSO only", "value": "noticeably elevated"},
      {"measurement": "p62/SQSTM1 expression", "setting": "WM983-B melanoma cells [3]; 24 hr", "value": "did not lead to an increase"},
      {"measurement": "LC3-positive cells in tumor sections", "setting": "[4]", "value": "more LC3-positive cells"},
      {"measurement": "morphology of tumor cells (H&E)", "setting": "[4]", "value": "arranged in a scattered pattern with focally pronounced disturbances in the tissue's architecture"},
      {"measurement": "cleaved caspase 3 (apoptosis)", "setting": "[5]", "value": "nor were they positive for cleaved caspase 3"},
      {"measurement": "binding to FBS", "setting": "Binding to FBS", "value": "bind strongly"},
      {"measurement": "cell killing (LDH release)", "setting": "WM983-B melanoma cells [6]", "value": "strong killing that reached a maximum at a 10 μM dose"}
    ]}
  ]
}
